The source of these data is patent EP4800015A1, “AZABICYCLO DERIVATIVE AND PREPARATION METHOD THEREFOR, AND USE” (Zhejiang Hisun Pharmaceutical Co., Ltd., priority 2023, dated 2025).

One data set concerns RL95-2 cells. As to the kind of experiment: Inhibition of RL95-2 cell proliferation (CellTiter-Glo). The following applies: Homo sapiens; RL95-2 cells (MSI-H), 120 hours. In kind it is cell-based. A digest of the protocol:
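RL95-2 (MSI-H) cells, 500/well in DMEM/F12 with 10% FBS, adhered overnight, then treated 120 h at 37 °C, 5% CO2 with compound at final 1.52-10000 nM. Viability by CellTiter-Glo luminescence. Inhibition relative to 0.1% DMSO control; IC50 from nonlinear regression of log concentration versus inhibition.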
A general note: ATP-based viability assays read luminescence as a measure of living cells.

A short description of data set [1]: Metabolic stability in human liver microsomes. In kind it is in vitro ADME. The following applies: human liver microsomes 0.5 mg mL^-1, NADPH 1 mM, 0-60 min; read-out: Liver microsomal stability t1/2 (min) Human. As to the method:
(§1) The purpose of this study was to investigate the metabolic stability of the compounds of the present disclosure in human and dog liver microsomes.
(§2) The compounds were co-incubated with human (or dog) liver microsomes, and the reaction was initiated by adding coenzyme NADPH (1 mM). At 0, 5, 15, 30, and 60 minutes, 60 µL of incubation solution was removed, and 180 µL of acetonitrile containing internal standard (clopidogrel) was added to quench the reaction, the mixture was shaken for 10 seconds, centrifuged at 10000 rpm for 10 minutes, and the supernatant was taken for analysis by LC-MS/MS. The in vitro intrinsic clearance was calculated based on the elimination half-life of the test compound in the incubation system. Midazolam was used as an internal reference compound, with two parallel incubations for each. Incubation conditions are summarized in Table 6 below: Table 6 Incubation conditions for the example compounds of the present disclosure
(§3) The ratio of the peak area of analyte to internal standard (Aanalyte/AIS) was obtained from the instrument, and the remaining percentage (%Control) was calculated from the ratio of Aanalyte/AIS in non-zero time point samples to zero time samples. Ln (%Control) was plotted against incubation time and linearly fitted. The test compound clearance constant (k, min^-1) and clearance half-life (T1/2, min) were calculated using the following equations. k = −slope [formula] T1/2 = 0.693/k. [formula]
For orientation: Liver microsomes are vesicles of endoplasmic reticulum, rich in cytochrome P450 enzymes.

Data set [2] can be described thus: Metabolic stability in dog liver microsomes. The class given is in vitro ADME. The following applies: dog liver microsomes 0.5 mg mL^-1, NADPH 1 mM, 0-60 min; read-out: Liver microsomal stability t1/2 (min) Dog. As to the method: as §1, §2, §3
Data set [3] in a line: Pharmacokinetic test in mice after intragastric administration. In kind it is in vivo. To be noted: male, mouse, plasma, ICR mice, Oral (10 mg/kg). The procedure:
ICR mice were used as test animals, the plasma concentrations of the control compound HRO761 and the compounds of the present disclosure at different time points after intragastric administration were determined by LC/MS/MS method, and the pharmacokinetic characteristics of the compounds of the present disclosure in mice were studied.
ICR mice, male, 30.8 to 38.0 g, purchased from Vital River Laboratory Animal Technology Co., Ltd.
An appropriate amount of the test compound was weighed, and an appropriate amount of DMA (N,N-dimethylacetamide), 30% Solutol HS15 (30% polyethylene glycol-15 hydroxystearate), and Saline (saline) were added sequentially, the mixture was ultrasonicated and vortex mixed to prepare a 1 mg/mL dosing formulation. The ratio of DMA:30% Solutol HS15:Saline was 5:5:90 (v/v/v).
After overnight fasting, ICR mice in each test compound injection group (9 mice per group) were administered intragastrically (PO, compound dose was 10 mg/kg, administration volume was 10 mL/kg), and food was given 4 hours after administration.
About 0.1 mL of blood was collected via the orbital cavity before administration and at 0.25 h, 0.5 h, 1 h, 2 h, 4 h, 8 h, 10 h, and 24 h after administration, and whole blood samples were placed in anticoagulant tubes containing EDTA-K2. The samples were placed on ice after collection, and plasma was separated by centrifugation (centrifugation conditions: 1500 g, 10 minutes). The collected plasma was stored at -40 to -20 °C before analysis.
The content of the test compound in mouse plasma after intragastric administration was determined by LC-MS/MS.

Each structure is given as a SMILES string.

The term IC50 denotes the concentration that inhibits the measured activity by half. High values mean a need for much substance, low ones inhibition by little substance. `CCc1c(N2CCN(C(=O)c3ncnc(C)c3O)CC2)c(=O)n2nc(-c3cc4ccccc4s3)nc2n1CC(=O)Nc1ccc(C(F)(F)F)cc1Cl` [Example 80, 2-(2-(benzo[b]thiophen-2-yl)-5-ethyl-6-(4-(5-hydroxy-6-methylpyrimidine-4-carbonyl)piperazin-1-yl)-7-oxo-[1,2,4]triazolo[1,5-a]pyrimidin-4(7H)-yl)-N-(2-chloro-4-(trifluoromethyl)phenyl)acet amide] displayed an IC50 in the data set with RL95-2 cells of 1 to 100 nM. Moreover, the figures for the half-life in data set [1], in data set [2] and in data set [3] (read-out: Half-life T1/2 (converted)) were 1300 min, 637 min and 2.11 h, respectively. Further, the AUC(0-t) in data set [3] (read-out: Area under curve AUC0-t) turned out to be 104 µg·h/mL. Besides, the Cmax in data set [3] (read-out: Plasma concentration Cmax) was determined as 19800 ng/mL.
